# Laboratory results from patent US12161630B2, “Methods to control infection using new generation small molecule growth inhibitors” (priority 2017, dated 2024).
# Columns and labels:
# S. typhimurium WT [1] = assay: High-throughput primary screen for S. typhimurium growth inhibitors at 200 μM; format: cell-based, Salmonella enterica subsp. enterica serovar Typhimurium LT2; conditions: adjusted M9 minimal broth, 12 hrs, 37° C., bactericidal = 100% growth inhibition and no growth on XLT4 agar, bacteriostatic = 100% growth inhibition but growth on XLT4 agar
# Description: Identification of S. typhimurium growth inhibitors: The 4182 small molecules (SMs) were screened at 200 μM against S. typhimurium WT using HTS assay in a 96-well plate format. An overnight Salmonella suspension was normalized at 0.05 OD600 (approximately 3.5×10^7 CFU/ml) with an adjusted M9 minimal broth medium (12.7 mM Na2HPO4 7H2O; 22 mM KH2PO4; 18.7 mM NH4Cl; 2 mM MgSO4; 0.1 mM CaCl2; 0.4% glucose; 0.05% casamino acids). 100 μL of the suspension plus 2 μl of SMs (200 μM) were transferred into each well of a sterile, non-treated, flat bottom 96-well plate. Bacteria alone (negative control, NC), 2% DMSO plus bacteria (DMSO control), 20 μg/ml chloramphenicol or 50 μg/ml kanamycin plus bacteria (positive controls, PC), and M9 medium only were used as control. Plates were incubated in a Sunrise™ Tecan kinetic microplate reader for 12 hrs at 37° C. and the optical density (OD) was measure at 600 nm as described above. Percentage of inhibition=[…]. SMs were identified as growth inhibitors if their inhibition value after incubation was above 20% (value representing the inhibition level monitored with the DMSO controls). Cultures from wells showing no turbidimetric increase were transferred onto a XLT4 agar plate. Plates were incubated at 37° C. for 36 hrs.
# S. typhimurium WT [2] = assay: Combined antimicrobial study between antibiotics and SMs; format: cell-based, Salmonella enterica subsp. enterica serovar Typhimurium LT2; conditions: for MBCAlone (MBC of the antibiotic by itself, no SM): S. typhimurium WT, adjusted M9 minimal broth; for MBCComb4 (MBC of antibiotic in antibiotic+SM4 combination) / SM4R (result of synergy testing, antibiotic+SM4): [SM4] 10 μM; for MBCComb5 (MBC of antibiotic in antibiotic+SM5 combination) / SM5R (result of synergy testing, antibiotic+SM5): [SM5] 25 μM; for reduction in MBC when combined with SM1: antibiotic combined with SM1; for effect of the presence of SM on antibiotic MBC: combined with SM1, SM3, SM4 or SM5
# Description: Combined antimicrobial study between antibiotics and small molecules (SMs): The antimicrobial efficacy of several antibiotics commonly used to control Salmonella was studied once combined with the selected four SMs. […] The MBC of each antibiotic were pre-determined as described previously. Bacteria challenged with only SMs or antibiotics at the same concentrations were used to determine the ATB-SM combination effects. […] Plates were incubated in a Sunrise™ Tecan kinetic microplate reader for 12 hrs at 37° C. and the optical density (OD) was measure at 600 nm as described above. After challenging, survival was recorded following plating of the bacterial suspension on agar plate and incubated at 37° C. for 36 hrs. The ATB-SM combination effect was calculated as described in Doern CD, 2014 (12).
smiles,measurement,setting,value
"CN(Cc1ccccc1)CC(O)COc1ccc(CNCc2ccc(Cl)s2)cc1 (stereo not shown) [SM6, 1-[benzyl(methyl)amino]-3-[4-({[(5-chloro-2-thienyl)methyl]amino}methyl)phenoxy]-2-propanol]",Effect on S. Typhimurium at 200 μM,S. typhimurium WT [1],Bactericidal
"C[C@@H](O)[C@H]1C(=O)N2C(C(=O)O)=C(S[C@@H]3CN[C@H](C(=O)N(C)C)C3)[C@H](C)[C@H]12 [Meropenem, meropenem]","MBCAlone (MBC of the antibiotic by itself, no SM)",S. typhimurium WT [2],0.2 µg/mL
same,MBCComb1 (MBC of antibiotic in antibiotic+SM1 combination),S. typhimurium WT [2]; [SM1] 5 μM,0.16 µg/mL
same,"SM1R (result of synergy testing, antibiotic+SM1)",S. typhimurium WT [2]; [SM1] 5 μM,Add
same,MBCComb1 (MBC of antibiotic in antibiotic+SM1 combination),S. typhimurium WT [2]; [SM1] 10 μM,0.08 µg/mL
same,"SM1R (result of synergy testing, antibiotic+SM1)",S. typhimurium WT [2]; [SM1] 10 μM,Add
same,MBCComb1 (MBC of antibiotic in antibiotic+SM1 combination),S. typhimurium WT [2]; [SM1] 20 μM,0.04 µg/mL
same,"SM1R (result of synergy testing, antibiotic+SM1)",S. typhimurium WT [2]; [SM1] 20 μM,Add
same,MBCComb3 (MBC of antibiotic in antibiotic+SM3 combination),S. typhimurium WT [2]; [SM3] 15 μM,0.16 µg/mL
same,"SM3R (result of synergy testing, antibiotic+SM3)",S. typhimurium WT [2]; [SM3] 15 μM,Ind
same,MBCComb3 (MBC of antibiotic in antibiotic+SM3 combination),S. typhimurium WT [2]; [SM3] 20 μM,0.08 µg/mL
same,"SM3R (result of synergy testing, antibiotic+SM3)",S. typhimurium WT [2]; [SM3] 20 μM,Ind
same,MBCComb4 (MBC of antibiotic in antibiotic+SM4 combination),S. typhimurium WT [2],0.2 µg/mL
same,"SM4R (result of synergy testing, antibiotic+SM4)",S. typhimurium WT [2],Ind
same,MBCComb5 (MBC of antibiotic in antibiotic+SM5 combination),S. typhimurium WT [2],0.2 µg/mL
same,"SM5R (result of synergy testing, antibiotic+SM5)",S. typhimurium WT [2],Ind
same,reduction in MBC when combined with SM1,S. typhimurium WT [2],up to 80%
"COc1cccc(C2(c3ccc(O)cc3)CCCC2)c1 [SM11, 4-[1-(3-methoxyphenyl)cyclopentyl]phenol]",Effect on S. Typhimurium at 200 μM,S. typhimurium WT [1],Bacteriostatic
"C(=Cc1ccccc1)CN1CCN(C2c3ccccc3-c3ccccc32)CC1 [SM19, 1-(9H-fluoren-9-yl)-4-(3-phenyl-2-propen-1-yl)piperazine]",Effect on S. Typhimurium at 200 μM,S. typhimurium WT [1],Bacteriostatic
"O=C(O)c1cc(NN=Nc2ccc(Br)cc2)cc([N+](=O)[O-])c1 [SM12, 3-[3-(4-bromophenyl)-2-triazen-1-yl]-5-nitrobenzoic acid]",Effect on S. Typhimurium at 200 μM,S. typhimurium WT [1],Bacteriostatic
"CCOC(=O)c1c(N)sc(C(C)=O)c1C [SM10, ethyl 5-acetyl-2-amino-4-methyl-3-thiophenecarboxylate]",Effect on S. Typhimurium at 200 μM,S. typhimurium WT [1],Bacteriostatic
"COc1cccc(N=Cc2cc(Cl)cc(Cl)c2O)c1 [SM8, 2,4-dichloro-6-{[(3-methoxyphenyl)imino]methyl}phenol]",Effect on S. Typhimurium at 200 μM,S. typhimurium WT [1],Bactericidal
"CN1C(=O)NC(=O)C(=Cc2ccc([N+](=O)[O-])o2)C1=O [SM17, 1-methyl-5-[(5-nitro-2-furyl)methylene]-2,4,6(1H,3H,5H)-pyrimidinetrione]",Effect on S. Typhimurium at 200 μM,S. typhimurium WT [1],Bacteriostatic
"CC(C)Cc1ccc(CN2CCCC(NC(=O)CN3CCCN(C)CC3)C2)cc1 (stereo not shown) [SM9, N-[1-(4-isobutylbenzyl)-3-piperidinyl]-2-(4-methyl-1,4-diazepan-1-yl)acetamide]",Effect on S. Typhimurium at 200 μM,S. typhimurium WT [1],Bactericidal
"O=[N+]([O-])c1ccc(F)c(N=Cc2cc(Cl)cc(Cl)c2O)c1 [SM7, 2,4-dichloro-6-{[(2-fluoro-5-nitrophenyl)imino]methyl}phenol]",Effect on S. Typhimurium at 200 μM,S. typhimurium WT [1],Bactericidal
"COc1cccc(N=Cc2cc(Br)ccc2O)c1 [SM16, 4-bromo-2-{[(3-methoxyphenyl)imino]methyl}phenol]",Effect on S. Typhimurium at 200 μM,S. typhimurium WT [1],Bacteriostatic
"Clc1ccc(CCNC2CCN(Cc3ccccc3)CC2)c(Cl)c1 [SM13, 1-benzyl-N-[2-(2,4-dichlorophenyl)ethyl]-4-piperidinamine]",Effect on S. Typhimurium at 200 μM,S. typhimurium WT [1],Bacteriostatic
"CCn1cc(C(=O)O)c(=O)c2ccc(C)nc21 [Nalidixic Acid, nalidixic acid]","MBCAlone (MBC of the antibiotic by itself, no SM)",S. typhimurium WT [2],16 µg/mL
same,MBCComb1 (MBC of antibiotic in antibiotic+SM1 combination),S. typhimurium WT [2]; [SM1] 30 μM,8 µg/mL
same,"SM1R (result of synergy testing, antibiotic+SM1)",S. typhimurium WT [2]; [SM1] 30 μM,Ind
same,MBCComb1 (MBC of antibiotic in antibiotic+SM1 combination),S. typhimurium WT [2]; [SM1] 40 μM,4.8 µg/mL
same,"SM1R (result of synergy testing, antibiotic+SM1)",S. typhimurium WT [2]; [SM1] 40 μM,Ind
same,MBCComb3 (MBC of antibiotic in antibiotic+SM3 combination),S. typhimurium WT [2]; [SM3] 25 μM,16 µg/mL
same,"SM3R (result of synergy testing, antibiotic+SM3)",S. typhimurium WT [2]; [SM3] 25 μM,Ind
same,MBCComb4 (MBC of antibiotic in antibiotic+SM4 combination),S. typhimurium WT [2],16 µg/mL
same,"SM4R (result of synergy testing, antibiotic+SM4)",S. typhimurium WT [2],Ind
same,MBCComb5 (MBC of antibiotic in antibiotic+SM5 combination),S. typhimurium WT [2],16 µg/mL
same,"SM5R (result of synergy testing, antibiotic+SM5)",S. typhimurium WT [2],Ind
same,reduction in MBC when combined with SM1,S. typhimurium WT [2],up to 70%
"CO/N=C(\C(=O)N[C@@H]1C(=O)N2C(C(=O)O)=C(COC(C)=O)CS[C@H]12)c1csc(N)n1 [Cefotaxime, cefotaxime]","MBCAlone (MBC of the antibiotic by itself, no SM)",S. typhimurium WT [2],3.2 µg/mL
same,MBCComb1 (MBC of antibiotic in antibiotic+SM1 combination),S. typhimurium WT [2]; [SM1] 50 μM,3.2 µg/mL
same,"SM1R (result of synergy testing, antibiotic+SM1)",S. typhimurium WT [2]; [SM1] 50 μM,Ind
same,MBCComb3 (MBC of antibiotic in antibiotic+SM3 combination),S. typhimurium WT [2]; [SM3] 25 μM,3.2 µg/mL
same,"SM3R (result of synergy testing, antibiotic+SM3)",S. typhimurium WT [2]; [SM3] 25 μM,Ind
same,MBCComb4 (MBC of antibiotic in antibiotic+SM4 combination),S. typhimurium WT [2],3.2 µg/mL
same,"SM4R (result of synergy testing, antibiotic+SM4)",S. typhimurium WT [2],Ind
same,MBCComb5 (MBC of antibiotic in antibiotic+SM5 combination),S. typhimurium WT [2],3.2 µg/mL
same,"SM5R (result of synergy testing, antibiotic+SM5)",S. typhimurium WT [2],Ind
same,effect of the presence of SM on antibiotic MBC,S. typhimurium WT [2],no effect
"CC1=NN(c2ccccc2)C(=O)C1C(=O)c1ccccc1 (stereo not shown) [SM18, 4-benzoyl-5-methyl-2-phenyl-2,4-dihydro-3H-pyrazol-3-one]",Effect on S. Typhimurium at 200 μM,S. typhimurium WT [1],Bacteriostatic
"COc1ccc(CNCc2ccc(C)cc2)cc1OCC(O)CN1CCCCCCC1 (stereo not shown) [SM15, 1-(1-azocanyl)-3-(2-methoxy-5-{[(4-methylbenzyl)amino]methyl}phenoxy)-2-propanol]",Effect on S. Typhimurium at 200 μM,S. typhimurium WT [1],Bacteriostatic
"CC[C@H]1OC(=O)[C@H](C)[C@@H](O[C@H]2C[C@@](C)(OC)[C@@H](O)[C@H](C)O2)[C@H](C)[C@@H](O[C@@H]2O[C@H](C)C[C@H](N(C)C)[C@H]2O)[C@](C)(O)C[C@@H](C)C(=O)[C@H](C)[C@@H](O)[C@]1(C)O [Erythromycin, erythromycin]","MBCAlone (MBC of the antibiotic by itself, no SM)",S. typhimurium WT [2],200 µg/mL
same,MBCComb1 (MBC of antibiotic in antibiotic+SM1 combination),S. typhimurium WT [2]; [SM1] 50 μM,200 µg/mL
same,"SM1R (result of synergy testing, antibiotic+SM1)",S. typhimurium WT [2]; [SM1] 50 μM,Ind
same,MBCComb3 (MBC of antibiotic in antibiotic+SM3 combination),S. typhimurium WT [2]; [SM3] 25 μM,200 µg/mL
same,"SM3R (result of synergy testing, antibiotic+SM3)",S. typhimurium WT [2]; [SM3] 25 μM,Ind
same,MBCComb4 (MBC of antibiotic in antibiotic+SM4 combination),S. typhimurium WT [2],200 µg/mL
same,"SM4R (result of synergy testing, antibiotic+SM4)",S. typhimurium WT [2],Ind
same,MBCComb5 (MBC of antibiotic in antibiotic+SM5 combination),S. typhimurium WT [2],200 µg/mL
same,"SM5R (result of synergy testing, antibiotic+SM5)",S. typhimurium WT [2],Ind
same,effect of the presence of SM on antibiotic MBC,S. typhimurium WT [2],no effect
